Columns and labels:
Experiment in all cases: Cell proliferation CellTiterGlo Ex.2
Type in all cases: cell-based
MKN-1 = conditions: Homo sapiens; MKN-1 (Stomach), 72 h
Protocol: (§1) A dose response relationship on cell proliferation was assessed for Compound 13 on 140 tumor cell lines. Briefly, compound treatment of cells started one day after seeding with a final DMSO concentration of 0.100, and was performed by nanodrop-dispensing using a Tecan Dispenser. 0.10% DMSO (solvent) and Staurosporine (10 μM) served as high control (10000 viability) and low control (000 viability), respectively. Compound 13 was tested at 10, 3, 1, 0.3, 0.1, 0.03, 0.01, and 0.003 μM.
(§2) Cells were cultured in the appropriate media. For the assays, cells were seeded in white cell culture-treated flat and clear bottom multiwell plates and incubated at 37° C. overnight before compound was added. After incubation for 72 h at 37° C. at 5% or 10% CO2 dependent on the medium, cell plates were equilibrated to room temperature for one hour, CellTiterGlo reagent (Promega) was added and luminescence was measured approximately an hour later using a luminometer.
(§3) Raw data were converted into percent cell viability relative to the high and low control, which were set to 10000 and 000, respectively.

RL95-2 = conditions: Homo sapiens; RL95-2 (Endometrium), 72 h
Protocol: as §1, §2, §3

SNU840 = conditions: SNU-840; SNU840 (Ovary), 72 h
Protocol: as §1, §2, §3

NCI-H838 = conditions: Homo sapiens; NCI-H838 (Lung), 72 h
Protocol: as §1, §2, §3

AsPC-1 = conditions: Homo sapiens, ASPC1; AsPC-1 (Pancreas), 72 h
Protocol: as §1, §2, §3

Saos-2 EC = conditions: Homo sapiens; Saos-2 EC (Bone), 72 h
Protocol: as §1, §2, §3

Hutu 80 = conditions: Homo sapiens, HuTu80; Hutu 80 (Duodenum), 72 h
Protocol: as §1, §2, §3

SK-OV3 = conditions: Homo sapiens, SK-OV-3; SK-OV3 (Ovary), 72 h
Protocol: as §1, §2, §3

RPMI 8226 = conditions: Homo sapiens; RPMI 8226 (Blood), 72 h
Protocol: as §1, §2, §3

M07e = conditions: M-07e; M07e (Blood), 72 h
Protocol: as §1, §2, §3

Mia PaCA 2 = conditions: Homo sapiens; Mia PaCA 2 (Pancreas), 72 h
Protocol: as §1, §2, §3

MKN-45 = conditions: Homo sapiens; MKN-45 (Stomach), 72 h
Protocol: as §1, §2, §3

SNU-16 = conditions: Homo sapiens; SNU-16 (Stomach), 72 h
Protocol: as §1, §2, §3

K562 = conditions: Homo sapiens; K562 (Blood), 72 h
Protocol: as §1, §2, §3

NCI-H1838 = conditions: Homo sapiens; NCI-H1838 (Lung), 72 h
Protocol: as §1, §2, §3

Kato III = conditions: Homo sapiens; Kato III (Stomach), 72 h
Protocol: as §1, §2, §3

Colo 205 = conditions: Homo sapiens; Colo 205 (Colon), 72 h
Protocol: as §1, §2, §3

ZR-75-1 = conditions: Homo sapiens; ZR-75-1 (Breast), 72 h
Protocol: as §1, §2, §3

NALM-6 = conditions: Homo sapiens; NALM-6 (Blood), 72 h
Protocol: as §1, §2, §3

J82 = conditions: Homo sapiens; J82 (Bladder), 72 h
Protocol: as §1, §2, §3

PANC-1 = conditions: Homo sapiens; PANC-1 (Pancreas), 72 h
Protocol: as §1, §2, §3

SK-N-SH = conditions: Homo sapiens; SK-N-SH (Brain), 72 h
Protocol: as §1, §2, §3

HT-29 = conditions: Homo sapiens; HT-29 (Colon), 72 h
Protocol: as §1, §2, §3

U251MG = conditions: Homo sapiens, U-251; U251MG (Brain), 72 h
Protocol: as §1, §2, §3

SW620 = conditions: Homo sapiens, SW-620; SW620 (Colon), 72 h
Protocol: as §1, §2, §3

HuH7 = conditions: Homo sapiens, Huh-7; HuH7 (Liver), 72 h
Protocol: as §1, §2, §3

LOVO = conditions: Homo sapiens; LOVO (Colon), 72 h
Protocol: as §1, §2, §3

NCI-H1048 = conditions: Homo sapiens; NCI-H1048 (Lung), 72 h
Protocol: as §1, §2, §3

MOLM-13 = conditions: Homo sapiens; MOLM-13 (Blood), 72 h
Protocol: as §1, §2, §3

MDA MB 231 = conditions: Homo sapiens; MDA MB 231 (Breast), 72 h
Protocol: as §1, §2, §3

HeLa = conditions: Homo sapiens; HeLa (Cervix), 72 h
Protocol: as §1, §2, §3

HT-1080 = conditions: Homo sapiens; HT-1080 (Fibrosarcoma), 72 h
Protocol: as §1, §2, §3

SK-N-FI = conditions: Homo sapiens; SK-N-FI (Brain), 72 h
Protocol: as §1, §2, §3

## C#C[C@]1(CO)O[C@@H](n2cnc3c(=O)[nH]c(N)nc32)C[C@@H]1O [compound 13]
MKN-1
  IC50: 8.76 µM
RL95-2
  IC50: 5.38 µM
SNU840
  IC50: 4.23 µM
NCI-H838
  IC50: > 10 µM
AsPC-1
  IC50: > 10 µM
Saos-2 EC
  IC50: 3.99 µM
Hutu 80
  IC50: 1.44 µM
SK-OV3
  IC50: 4 µM
RPMI 8226
  IC50: > 10 µM
M07e
  IC50: 4.07 µM
Mia PaCA 2
  IC50: > 10 µM
MKN-45
  IC50: > 10 µM
SNU-16
  IC50: 1.95 µM
K562
  IC50: > 10 µM
NCI-H1838
  IC50: 7.53 µM
Kato III
  IC50: 4.86 µM
Colo 205
  IC50: 1.5 µM
ZR-75-1
  IC50: > 10 µM
NALM-6
  IC50: 0.25 µM
J82
  IC50: 5.73 µM
PANC-1
  IC50: > 10 µM
SK-N-SH
  IC50: 6.47 µM
HT-29
  IC50: > 10 µM
U251MG
  IC50: > 10 µM
SW620
  IC50: 7.21 µM
HuH7
  IC50: 1.24 µM
LOVO
  IC50: 8.21 µM
NCI-H1048
  IC50: 2.49 µM
MOLM-13
  IC50: 0.46 µM
MDA MB 231
  IC50: 3.85 µM
HeLa
  IC50: 1.3 µM
HT-1080
  IC50: 7.16 µM
SK-N-FI
  IC50: > 10 µM

Source: patent publication US20230293526A1, “METHOD FOR TREATING CANCER WITH A REVERSE TRANSCRIPTASE INHIBITOR” (PrimeFour Therapeutics, Inc., priority 2020, published 2023)
